Converted amounts (≈) assume the structure as drawn.
Experiments:
S. pneumoniae ATCC6301 = assay: Mouse survival model (lung infection); assay type: in vivo; conditions: CD-1 mice
Procedure: Anaesthetised female CD-1 mice (18-22 g) were inoculated intranasally with approximately 10^6 cfus of S. pneumoniae ATCC6301 prepared from a fresh overnight culture by placing 50 μl of inoculum on the nares and allowing the mice to inhale. Compounds are administered as indicated at 24, 48 and 72 hours post inoculation and the mice monitored for survival for seven or nine days after infection. […] Similarly, when Compound 17 was dosed IV at 30 mg/kg 90% of mice survived at day seven.

[1] = Pharmacokinetic profile, rat assay (IV); assay type: in vivo; conditions: plasma
Procedure: The pharmacokinetic profiles of compounds are determined by measuring the compound concentration in plasma by LC/MS/MS following a single intravenous or peroral administration of the compounds at a dose of 1 or 3 mg/kg individually or in a cassette of up to 5 compounds. The concentrations are described as the mean plasma concentrations at each time point from three animals. Intravenous dose formulation is administered as a single bolus dose through the tail vein. Oral dose formulation is administered to animals by an oral gavage needle. In both cases the dose volume is 5.0 mL/kg. Blood is collected from rats using a jugular vein catheter and from anesthetized mice through a capillary guided into the retro-orbital plexus. The collected blood is then centrifuged to obtain plasma and the compounds extracted into methanol prior to determining the compound concentration by LC/MS/MS.
The pharmacokinetic profiles of selected compounds of the invention were compared directly with their primary alcohol analogues, Compounds A and B below, in the rat assay (IV).

Microsomal stability = assay type: in vitro ADME; conditions: pH 7.4; mouse liver microsomes; major metabolite the parent alcohol
Procedure: In a 96 well polypropylene plate, 10 μM compound is prepared in 100 mM KPO4 buffer pH 7.4, 5 mM MgCl2, 25 μg/ml Alamethicin, 1 mg/ml (protein) liver microsomes (mouse) and a final DMSO concentration of 0.1% in 100 μl in duplicate. The plate is pre-incubated at 37° C. for 10 minutes after which reactions are initiated by the addition of NADPH and UDPGA to a final concentration of 1 mM and 5 mM respectively. Reactions are incubated at 37° C. and terminated by the addition of 100 μl DMSO at 0, 10, 30 and 60 minutes. Samples of 100 μl are withdrawn and added to 50 μl ice cold methanol and mixed on an orbital shaker for 10 minutes to precipitate the proteins. The samples are then centrifuged at 4000 rpm and 10° C. for 30 minutes and supernatants are analysed by LCMS. The T1/2 and clearance are determined by linear regression from the peak areas.

Thermodynamic solubility = assay type: physicochemical; conditions: aqueous buffer, thermodynamic from solid; pH 7.4, HEPES buffer, 24 hours shaking at room temperature
Procedure: In a 1.5 mL eppendorf tube, approximately 2 mg of compound is resuspended in a volume of HEPES buffer pH 7.4 to achieve a 5 mg/mL suspension. The tubes are placed on an orbital shaker at room temperature and following shaking for 24 hours the tubes are spun at 1400 rpm in a bench top centrifuge to pellet the undissolved compound. Duplicate 150 μL aliquots of the supernatant are then transferred into two ultracentrifuge tubes and spun at 357440 g for 4 hours at 20° C. 50 μL of the supernatant from each tube is then diluted with 100 μL of methanol and analysed by HPLC or LCMS to determine the concentration of compound in solution by comparing to a standard curve. The thermodynamic solubility of representative Compounds 19, 123, 134 and 153 were tested and determined to be highly soluble, at ≧2 mg/mL, at pH 7.4.

S. pyogenes (ATCC 51339) = assay: Antibacterial activity MIC, S. pyogenes; assay type: cell-based; conditions: Streptococcus pyogenes, ATCC51339
S. aureus (ATCC 29213) = assay: Antibacterial activity MIC, S. aureus; assay type: cell-based; conditions: Staphylococcus aureus, ATCC29213
[2] = test system: H. influenzae (ATCC 49247); assay: Antibacterial activity MIC, H. influenzae; assay type: cell-based; conditions: Haemophilus influenzae, ATCC49247

CCNC(=O)Nc1nc2cc(-c3cnc(C(C)(C)O)nc3)cc(-c3ccccn3)c2s1 [Compound 1, 1-ethyl-3-[5-[2-(1-hydroxy-1-methyl-ethyl)pyrimidin-5-yl]-7-(2-pyridyl)-1,3-benzothiazol-2-yl]urea]
mice surviving (S. pneumoniae ATCC6301; dosed IV at 10 mg/kg, at seven or nine days): 80% | AUC ([1]; dose 1 mg/kg): 3100 ng·h/mL | clearance ([1]; dose 1 mg/kg): 4.3 mL/min/kg | half-life ([1]; dose 1 mg/kg): 3.38 h

CCNC(=O)Nc1nc2cc(-c3cnc(C(C)O)nc3)cc(-c3ccccn3)c2s1 (stereo not shown) [Compound 17, 1-ethyl-3-[5-[2-(1-hydroxyethyl)pyrimidin-5-yl]-7-(2-pyridyl)-1,3-benzothiazol-2-yl]urea]
mice survived (S. pneumoniae ATCC6301; dosed IV at 30 mg/kg, at day seven): 90% | AUC ([1]; dose 3 mg/kg): 4000 ng·h/mL | clearance ([1]; dose 3 mg/kg): 12 mL/min/kg | half-life ([1]; dose 3 mg/kg): 1.78 h

CCNC(=O)Nc1nc2cc(-c3cnc(C(C)OC(=O)CCC(=O)O)nc3)cc(-c3ccccn3)c2s1 (stereo not shown) [Compound 19, 4-[1-[5-[2-(ethylcarbamoylamino)-7-(2-pyridyl)-1,3-benzothiazol-5-yl]pyrimidin-2-yl]ethoxy]-4-oxo-butanoic acid]
half-life at 10 μM (Microsomal stability): < 0.333 h | solubility thermodynamic at 24 h (Thermodynamic solubility): ≥ 2000 µg/mL

CCNC(=O)Nc1nc2cc(-c3ccc(C(C)(C)O)nc3)cc(-c3ccccn3)c2s1 [Compound 27, 1-ethyl-3-[5-[6-(1-hydroxy-1-methyl-ethyl)-3-pyridyl]-7-(2-pyridyl)-1,3-benzothiazol-2-yl]urea]
AUC ([1]; dose 1 mg/kg): 1130 ng·h/mL | clearance ([1]; dose 1 mg/kg): 13 mL/min/kg | half-life ([1]; dose 1 mg/kg): 2.63 h

CCNC(=O)Nc1nc2cc(-c3cnc(C(C)(C)O)nc3)cc(-c3nccc(N4CCN(CC)CC4)n3)c2s1 [Compound 79, 1-ethyl-3-[7-[4-(4-ethylpiperazin-1-yl)pyrimidin-2-yl]-5-[2-(1-hydroxy-1-methyl-ethyl)pyrimidin-5-yl]-1,3-benzothiazol-2-yl]urea]
MIC (S. pyogenes (ATCC 51339)): 2 µg/mL (≈ 3.65 µM) | MIC (S. aureus (ATCC 29213)): 2 µg/mL (≈ 3.65 µM)

CCNC(=O)Nc1nc2cc(-c3cnc(N4CCC(C)(C(=O)O)CC4)nc3)cc(-c3ccc(C(C)(C)O)cn3)c2s1 [Compound 99, 1-[5-[2-(ethylcarbamoylamino)-7-[5-(1-hydroxy-1-methyl-ethyl)-2-pyridyl]-1,3-benzothiazol-5-yl]pyrimidin-2-yl]-4-methyl-piperidine-4-carboxylic acid]
MIC (S. pyogenes (ATCC 51339)): ≤ 1 µg/mL | MIC (S. aureus (ATCC 29213)): 2 µg/mL (≈ 3.47 µM) | MIC [2]: ≤ 2 µg/mL

CCNC(=O)Nc1nc2cc(-c3cnc(C4(OC(=O)CCC(=O)O)COC4)nc3)cc(-c3ccccn3)c2s1 [Compound 123, 4-[3-[5-[2-(ethylcarbamoylamino)-7-(2-pyridyl)-1,3-benzothiazol-5-yl]pyrimidin-2-yl]oxetan-3-yl]oxy-4-oxo-butanoic acid]
half-life at 10 μM (Microsomal stability): < 0.333 h | solubility thermodynamic at 24 h (Thermodynamic solubility): ≥ 2000 µg/mL

CCNC(=O)Nc1nc2cc(-c3cnc([C@H](C)OC(=O)CCC(=O)O)nc3)cc(-c3ccccn3)c2s1 [Compound 133, 4-[(1S)-1-[5-[2-(ethylcarbamoylamino)-7-(2-pyridyl)-1,3-benzothiazol-5-yl]pyrimidin-2-yl]ethoxy]-4-oxo-butanoic acid]
half-life at 10 μM (Microsomal stability): < 0.333 h

CCNC(=O)Nc1nc2cc(-c3cnc([C@@H](C)OC(=O)CCC(=O)O)nc3)cc(-c3ccccn3)c2s1 [Compound 134, 4-[(1R)-1-[5-[2-(ethylcarbamoylamino)-7-(2-pyridyl)-1,3-benzothiazol-5-yl]pyrimidin-2-yl]ethoxy]-4-oxo-butanoic acid]
half-life at 10 μM (Microsomal stability): < 0.333 h | solubility thermodynamic at 24 h (Thermodynamic solubility): ≥ 2000 µg/mL

CCNC(=O)Nc1nc2cc(-c3cnc([C@H](C)OP(=O)(O)O)nc3)cc(-c3ccccn3)c2s1 [Compound 153, [(1S)-1-[5-[2-(ethylcarbamoylamino)-7-(2-pyridyl)-1,3-benzothiazol-5-yl]pyrimidin-2-yl]ethyl]dihydrogen phosphate]
solubility thermodynamic at 24 h (Thermodynamic solubility): ≥ 2000 µg/mL

CCNC(=O)Nc1nc2cc(-c3cnc(CO)nc3)cc(-c3ccccn3)c2s1 [Compound A, 1-Ethyl-3-[5-[2-(hydroxymethyl)pyrimidin-5-yl]-7-(2-pyridyl)-1,3-benzothiazol-2-yl]urea, reference compound]
AUC ([1]; dose 3 mg/kg): 2000 ng·h/mL | clearance ([1]; dose 3 mg/kg): 25 mL/min/kg | half-life ([1]; dose 3 mg/kg): 1.35 h

CCNC(=O)Nc1nc2cc(-c3ccc(CO)nc3)cc(-c3ccccn3)c2s1 [Compound B, 1-Ethyl-3-[5-[6-(hydroxymethyl)-3-pyridyl]-7-(2-pyridyl)-1,3-benzothiazol-2-yl]urea, reference compound]
AUC ([1]; dose 3 mg/kg): 1800 ng·h/mL | clearance ([1]; dose 3 mg/kg): 28 mL/min/kg | half-life ([1]; dose 3 mg/kg): 1 h

CC(=O)NC[C@H]1CN(c2ccc(N3CCOCC3)c(F)c2)C(=O)O1 [Linezolid, reference compound]
survival of mice (in words) (S. pneumoniae ATCC6301; dosed with 10 mg/kg): dead by day six

— US8906902B2, “Antibacterial compounds” (Biota Europe Ltd., priority 2012, dated 2014)
